Square brackets hold non-standard residues; d marks the D form. Peptide text beside a SMILES is read from it. dPhe(F5) = N[C@H](Cc1c(F)c(F)c(F)c(F)c1F)C(=O)O; dBpa = N[C@H](Cc1ccc(C(=O)c2ccccc2)cc1)C(=O)O; dCha = N[C@H](CC1CCCCC1)C(=O)O
Assays:
Jurkat cells = test: M phase checkpoint abrogation / non specific toxicity, colchicine treated Jurkat cells; type: cell-based
DU-145 = test: G2 checkpoint abrogation by CBP501 combined with cis-platin, flow cytometry; type: cell-based; conditions: DU-145, prostate, MLH1; cis-platin 3 μg/ml 3 hr, then 45 hr
Protocol: (§1) The medium was aspirated, fresh medium without these compounds was added and the cells were incubated for an additional 45 hr. The cells including floating cells were harvested using trypsin-EDTA solution, incubated with Krishan's solution and analyzed for DNA content by flow cytometry as previously described.

HCT116 = test: as above; type: cell-based; conditions: HCT116, colon, hMLH1; cis-platin 3 μg/ml 3 hr, then 45 hr
Protocol: as §1

HT-29 = test: as above; type: cell-based; conditions: HT-29, colon; cis-platin 3 μg/ml 3 hr, then 45 hr
Protocol: as §1

MCF-7 = test: as above; type: cell-based; conditions: MCF-7, mammary gland; cis-platin 3 μg/ml 3 hr, then 45 hr
Protocol: as §1

MK45 = test: as above; type: cell-based; conditions: MK45, stomach; cis-platin 3 μg/ml 3 hr, then 45 hr
Protocol: as §1

NCI-H226 = test: as above; type: cell-based; conditions: NCI-H226, lung, SCC; cis-platin 3 μg/ml 3 hr, then 45 hr
Protocol: as §1

Panc1 = test: as above; type: cell-based; conditions: Panc1, pancreas; cis-platin 3 μg/ml 3 hr, then 45 hr
Protocol: as §1

SK-OV-3 = test: as above; type: cell-based; conditions: SK-OV-3, ovary, hMLH1; cis-platin 3 μg/ml 3 hr, then 45 hr
Protocol: as §1

SW620 = test: as above; type: cell-based; conditions: SW620, colon; cis-platin 3 μg/ml 3 hr, then 45 hr
Protocol: as §1

SW900 = test: as above; type: cell-based; conditions: SW900, lung, SCC; cis-platin 3 μg/ml 3 hr, then 45 hr
Protocol: as §1

[1] = Human serum treatment analysis (residual G2 checkpoint abrogating activity); type: in vitro ADME; conditions: 37 degrees
Protocol: Serum analysis was performed to determine the stability of peptides in mouse and human serum. Briefly, peptides (10 mM or 2.5 mM) were incubated with freshly prepared human serum at 37 degrees for 1 hr. […] Jurkat cells were treated with the serum with or without peptides and bleomycin (40 μg/ml) and incubated for 24 hr. The population of G2 phase cells was determined by flow cytometry as previously described. The residual G2 checkpoint abrogating activity of serum treated peptides were determined by comparing the % G2 cells of the treated serum and the standard curve produced with medium treated peptides, bleomycin and Jurkat cells (Table 5A).

[2] = test system: MIAPaCa2 human pancreatic carcinoma cells; test: Colony formation analysis of MIAPaCa2 cells; type: cell-based; conditions: CBP501 10 μmM, cisplatin or oxaliplatin 1, 3 or 9 μg/ml, three hours, then 10 days
calreticulin = test: Cell surface calreticulin exposure in CT26WT cells (FACS); type: cell-based, murine; conditions: 10-20 uM CDDP with 0.5 μM CBP501, 45 min
Protocol: Two days later, the cells were collected and analyzed by FACS with specific calreticulin antibody and propidium iodide (n=3). Samples were compared by student's t-test. *P<0.05 **P<0.01, compared with untreated cells, and ^†P<0.05, ^††P<0.01, compared with the corresponding CDDP alone.
After changing with fresh drug-free medium, cells were incubated for 24, 48, or 72 hours for Immunoblotting analysis of phospho-eIF2-alpha, for calreticulin analysis by FACS, or for HMGB1 ELISA.
Cells were collected and washed with PBS, followed by fixation with PBS containing 0.25% PFA for 5 minutes. The fixed cells were washed twice with ice-cold PBS and treated on ice with anti-calreticulin antibody (abcam) diluted with PBS containing 2% FBS (1/200) for 30 minutes. The primary antibody were removed with twice PBS containing 2% FBS wash and treated with alexa488-condjugated secondary antibody diluted with PBS containing 2% FBS (1/500) for 30 minutes at RT. The secondary antibody were removed with twice PBS and treated on ice with propidium iodide (1 ug/ml) for more than 5 minutes, followed by FACS analysis using FACSCalibur.

CT26WT = test: Analysis of tumor infiltrating lymphocytes in CT26WT tumors (flow cytometry); type: in vivo, mouse; conditions: day 11
Protocol: CT26WT were subcutaneously inoculated into the left flank of female Balb/c mice. […] Then, tumors were extracted from mice on day 11, and digested with triple enzyme mix (collagenase, hyaluronidase and DNase) to obtain single cell suspension. The cells were treated with FcR blocker and stained with specific antibody for multi-color flow cytometry analysis including CD4, CD8, CD45, CD11b, Ly6G, Ly6C, F4/80, MHC class II and CD206. Quantitative data (FIG. 32) are shown as mean values with SEM (n=3-4 mice/group). *: p<0.05, **: p<0.01, n.s.: not significant (unpaired, 2-tailed student's t-test), as compaired with cells from vehicle-treated or PD-1-treated tumor.

advanced solid tumors = conditions: monotherapy, cited from earlier work
CT26WT cells = conditions: 3 hours treatment, two days later

With `N=C(N)NCCC[C@@H](NC(=O)[C@@H](CCCNC(=N)N)NC(=O)[C@@H](CCC(N)=O)NC(=O)[C@@H](CCCNC(=N)N)NC(=O)[C@@H](CCCNC(=N)N)NC(=O)[C@@H](CCCNC(=N)N)NC(=O)[C@@H](CC1CCCCC1)NC(=O)[C@@H](Cc1c(F)c(F)c(F)c(F)c1F)NC(=O)[C@@H](CO)NC(=O)[C@@H](Cc1c[nH]c2ccccc12)NC(=O)[C@@H](CO)NC(=O)[C@H](N)Cc1ccc(C(=O)c2ccccc2)cc1)C(=O)O` [CBP501, (d-Bpa)(d-Ser)(d-Trp)(d-Ser)(d-Phe-2,3,4,5,6-F)(d-Cha)(d-Arg)(d-Arg)(d-Arg)(d-Gln)(d-Arg)(d-Arg)] (H-[dBpa][dS][dW][dS][dPhe(F5)][dCha][dR][dR][dR][dQ][dR][dR]-OH; N-terminus and C-terminus assumed) the “Non specific toxicity (M checkpoint abrogation), dose up to which absent” value (Jurkat cells; 0.5 μg/ml colchicine, unchanged percentage of M phase arrested cells) was > 50 µM, the “M phase cell cycle arrest and/or non specific toxicity induced by colchicine (in words)” value (Jurkat cells; FIG. 12) was “does not affect M phase cell cycle arrest and/or non specific toxicity induced by colchicine” and the “Appearance of side effect when used with Colchicine” value (Jurkat cells; dose with 5 μg/ml colchicine that produced Jurkat cell cycle disturbance, 24 hours) was >25 µM. For the same molecule, the “G2 checkpoint abrogating dose of CBP501, cis-platin” value (shortened to “G2 checkpoint abrogating dose”) (DU-145) was 0.4 µM, the “G2 checkpoint abrogating dose” value (HCT116) was <2 µM and the “G2 checkpoint abrogating dose” value (HT-29) was <2 µM. The “G2 checkpoint abrogating dose” value (MCF-7) was >10 µM, the “G2 checkpoint abrogating dose” value (MK45) was >10 µM and the “G2 checkpoint abrogating dose” value (NCI-H226) was 0.4 µM. The “G2 checkpoint abrogating dose” value (Panc1) was >10 µM, the “G2 checkpoint abrogating dose” value (SK-OV-3) was 50 µM and the “G2 checkpoint abrogating dose” value (SW620) was >10 µM. For the same molecule, the “G2 checkpoint abrogating dose” value (SW900) was >10 µM, the “Residual activity of peptide after 1 hr human serum treatment” value [1] was >50% of original and the “Enhancement of cyto-toxic activity of cisplatin and oxaliplatin, colony formation” value [2] was “enhanced the cyto-toxic activity of both cisplatin and oxaliplatin”. The “Calreticulin exposure to the cell surface” value (calreticulin) was “Positive effect”, the “CD8 (=CD45+CD8+) infiltration at tumor site, combined with CDDP and anti-PD1 antibody” value (CT26WT; CDDP 4 mg/kg + CBP501 6 mg/kg + anti-PD1 400 ug/mouse) was “statistically significant” and the “CD8 (=CD45+CD8+) infiltration at tumor site, combined with CDDP” value (CT26WT; CDDP 4 mg/kg i.v. + CBP501 6 mg/kg i.v.) was “tended to increase”. For the same molecule, the “M2 macrophages (=F4/80+CD206+) in tumor” value (CT26WT; combined with CDDP or CDDP plus anti-PD1 antibody) was “decreased M2 macrophages”, the Stable disease (advanced solid tumors; 60-min i.v. infusion days 1, 8, 15 every 28 days) was “Two patients achieved 7 cycles of treatment with stable disease” and the “Discontinuation due to toxicity” value (advanced solid tumors; days 1-8-15 every 28 days) was “No patients discontinued due to toxicity”. The “Potency in changing cell cycle phase distribution, CDDP combined with CBP501 vs CDDP alone” value (CT26WT cells) was “about 2 times”.

— patent publication US10149887B2, “Peptides and peptidomimetics in combination with t cell activating and/or checkpoint inhibiting agents for cancer treatment” (CanBas Co., Ltd., priority 2015, dated 2018)
